From US6841546B2, “Substituted tetracycline compounds as antifungal agents” (Paratek Pharmaceuticals, Inc., priority 2001, dated 2005)

Test: Mammalian Cytotoxicity Assay (Resazurin)
Type: cell-based
Settings: African green monkey (COS-1) and Chinese hamster (CHO)
Protocol: COS-1 and CHO cell suspensions are prepared, seeded into 96-well tissue culture treated black-walled microtiter plates (density determined by cell line), and incubated overnight at 37° C., in 5% CO2 and approximately 95% humidity. The following day serial dilutions of drug are prepared under sterile conditions and transferred to cell plates. Cell/Drug plates are incubated under the above conditions for 24 hours. Following the incubation period, media/drug is aspirated and 50 μl of Resazurin is added. Plates are then incubated under the above conditions for 2 hours and then in the dark at room temperature for an additional 30 minutes. Fluorescence measurements are taken (excitation 535 nm, emission 590 nm). The IC50 (concentration of drug causing 50% growth inhibition) is then calculated.

SMILES | IC50 at 24 h [µg/mL]
C[C@H]1c2cccc(O)c2C(=O)C2=C(O)[C@]3(O)C(=O)C(C(N)=O)=C(O)[C@@H](N(C)C)[C@@H]3[C@@H](O)[C@@H]21 [doxycycline] | > 25
CN(C)c1ccc(O)c2c1C[C@H]1C[C@H]3[C@H](N(C)C)C(O)=C(C(N)=O)C(=O)[C@@]3(O)C(O)=C1C2=O [minocycline] | > 25
